Activity calls are given as the source filed them. The rule behind the calls is not given here.

Data set [1] in a line: Antifibrotic activity in rat 1097 cells assessed as inhibition of TGF-beta-stimulated [3H]proline incorporation in to collagen at 30 uM. The format is functional.
Data set [2] in a line: (§1) Antifibrotic activity in rat 1097 cells assessed as inhibition of TGF-beta-stimulated [3H]proline incorporation in to collagen at 100 uM. The class given is functional.
Data set [3] deals with 1097. The data set can be described thus: Antifibrotic activity in rat 1097 cells assessed as necrotic cells at 30 uM. The format is functional, cell-based.
Data set [4] concerns 1097. As to the kind of experiment: Antifibrotic activity in rat 1097 cells assessed as necrotic cells at 100 uM. The format is functional, cell-based.
The subject of data set [5] is Rattus norvegicus. As to the kind of experiment: Reduction in albuminuria in STZ-induced Ren2 rat at 400 mg/kg/day after 24 hrs by radioimmunoassay. The class given is functional, organism-based.
Data set [6] has as its system Rattus norvegicus. As to the kind of experiment: Reduction in albuminuria in STZ-induced Ren2 rat at 200 mg/kg/day after 24 hrs by radioimmunoassay. The format is functional, organism-based.
The species entered for data set [7] is Rattus norvegicus. The data set is described as §1. The format is functional.
Data set [8] in a line: Toxicity against rat 1097 cells at 100 uM. The format is cell-based.
Data set [9] in a line: Toxicity against rat 1097 cells at 30 uM. The format is cell-based.
Data set [10] is filed under the species Rattus norvegicus. The data set can be described thus: Antifibrotic activity in rat 1097 cells assessed as damaged cells at 100 uM. The class given is functional, cell-based.
A short description of data set [11]: Antifibrotic activity in rat 1097 cells assessed as inhibition of TGF-beta-stimulated [3H]proline incorporation in to collagen at 10 uM. The format is functional.

One may read the inhibition as the change of the read-out against control, counted positive when it falls. In the case of `C#CCCCOc1ccc(/C=C/C(=O)Nc2ccccc2C(=O)O)cc1OC`, in data set [1], the inhibition at 30 µM was determined as 75%. For the same compound, the inhibition at 100 µM in [2] amounted to 100%.
As for `COc1cc(/C=C/C(=O)Nc2ccccc2C(=O)O)ccc1OC1CCCCCC1`, the result in [3] and in [4] was Active.
As to `C#CCCOc1ccc(/C=C/C(=O)Nc2ccccc2C(=O)O)cc1OC`, the inhibition at 30 µM in data set [1] was determined as 70%. For the same compound, in data set [2], the inhibition at 100 µM is 100%.
As for `COc1ccc(/C=C/C(=O)Nc2ccccc2C(N)=O)cc1OC`, the inhibition at 100 µM in [2] worked out at 35%.
For `C#CCCCCOc1cc(/C=C/C(=O)Nc2ccccc2C(=O)O)ccc1OC`, the inhibition at 30 µM in [1] stood at 95%. For the same compound, the inhibition at 100 µM in [2] came to 100%.
Regarding `C#CCOc1ccc(/C=C/C(=O)Nc2ccccc2C(=O)O)cc1OC` [ASENGEPRAST], in data set [1], the inhibition at 30 µM was found to be 55%. For the same compound, the result in data set [5] and in data set [6] was Active. For the same compound, in data set [2], the inhibition at 100 µM is 80%.
Consider `CCCCC#CCCOc1ccc(/C=C/C(=O)Nc2ccccc2C(=O)O)cc1OC`, for which the outcome in data set [3] was Active.
Regarding `O=C(/C=C/c1ccccc1)Nc1ccccc1C(=O)O`, the inhibition entry in [7] was “inactive”.
Consider `CCC#CCOc1cc(/C=C/C(=O)Nc2ccccc2C(=O)O)ccc1OC`, for which the results for the Activity result in data set [8] and in [9] were “Toxic” and “Non-toxic”, respectively. The inhibition at 30 µM in [1] amounted to 90%. In addition, in [2], the inhibition at 100 µM came to 100%.
Turning to `CCC#CCOc1ccc(/C=C/C(=O)Nc2ccccc2C(=O)O)cc1OC`, the Activity entry in data set [8] is “Toxic”; in data set [9], “Non-toxic”. The inhibition at 30 µM in data set [1] came to 100%. The inhibition at 100 µM in [2] stood at 100%.
Consider `COc1cc(/C=C/C(=O)Nc2ccccc2C(=O)O)ccc1OC1CCCCC1`, for which the outcome in [3] and in [4] was Active.
Regarding `COc1cc(/C=C/C(=O)Nc2ccccc2C(=O)O)ccc1OC1CCCC1`, the outcome in data set [10] was Active. Also, the Activity result in data set [8] was “Toxic”; in [9], “Non-toxic”. In addition, the inhibition at 30 µM in [1] came out at 100%.
As to `CCC#CCCOc1cc(/C=C/C(=O)Nc2ccccc2C(=O)O)ccc1OC`, in data set [1], the inhibition at 30 µM worked out at 100%. For the same compound, the inhibition at 100 µM in data set [2] was determined as 100%.
For `COc1ccc(/C=C/C(=O)Nc2ccccc2C(=O)O)cc1OC` [TRANILAST], the inhibition at 30 µM in data set [1] came to 40%. In addition, in [2], the inhibition at 100 µM stood at 70%.
Take `COc1ccc(/C=C/C(=O)Nc2ccccc2)cc1OC`: the inhibition at 100 µM in [2] worked out at 50%.
On to `CCCCC#CCCOc1cc(/C=C/C(=O)Nc2ccccc2C(=O)O)ccc1OC`, for which the result in data set [3] and in data set [4] was Active.
For the compound `COc1cc(/C=C/C(=O)Nc2ccccc2C(=O)O)ccc1OC1CCCCCCC1`, the outcome in data set [3] and in data set [4] was Active.
For the compound `CC#CCOc1ccc(/C=C/C(=O)Nc2ccccc2C(=O)O)cc1OC`, in data set [1], the inhibition at 30 µM came out at 65%. In addition, in [2], the inhibition at 100 µM worked out at 90%.
In the case of `C#CCCCCOc1ccc(/C=C/C(=O)Nc2ccccc2C(=O)O)cc1OC`, the outcome in data set [10] was Active. For the same compound, the inhibition at 30 µM in data set [1] was found to be 80%.
As for `CCC#CCCOc1ccc(/C=C/C(=O)Nc2ccccc2C(=O)O)cc1OC`, the outcome in data set [10] was Active. In addition, the inhibition at 30 µM in [1] was 100%.
In the case of `COc1cccc(/C=C/C(=O)Nc2ccccc2C(=O)O)c1`, in [2], the inhibition at 100 µM was found to be 40%.
In the case of `O=C(/C=C/c1ccc(O)c(O)c1)Nc1ccccc1C(=O)O`, in data set [2], the inhibition at 100 µM was determined as 90%.
Consider `C#CCOc1cc(/C=C/C(=O)Nc2ccccc2C(=O)O)ccc1OC`, for which the inhibition at 30 µM in [1] turned out to be 60%. In addition, the inhibition at 100 µM in [2] worked out at 90%.
Regarding `C#CCCOc1cc(/C=C/C(=O)Nc2ccccc2C(=O)O)ccc1OC`, the result in data set [10] was Active. Also, in data set [1], the inhibition at 30 µM was 65%.
For `COc1cc(/C=C/C(=O)Nc2ccccc2C(=O)O)ccc1OC1CCC1`, the outcome in data set [10] was Active. Besides, in data set [11], the inhibition at 10 µM was found to be 60%.
For `COc1ccc(CCC(=O)Nc2ccccc2C(=O)O)cc1OC`, the inhibition result in data set [7] is “inactive”.
On to `C#CCCCOc1cc(/C=C/C(=O)Nc2ccccc2C(=O)O)ccc1OC`, for which, in data set [10], the result was Active. The inhibition at 30 µM in data set [1] was 80%.
As for `CC#CCOc1cc(/C=C/C(=O)Nc2ccccc2C(=O)O)ccc1OC`, the inhibition at 30 µM in data set [1] was found to be 75%. Further, the inhibition at 100 µM in data set [2] was found to be 80%.
For the compound `COc1ccc(/C=C/C(=O)Nc2ccccc2C(=O)O)cc1O`, the inhibition at 100 µM in [2] was determined as 50%.
Turning to `COc1ccc(/C=C/C(=O)Nc2ccccc2C(=O)O)cc1`, the inhibition entry in [7] is “inactive”.
With `COc1cc(/C=C/C(=O)Nc2ccccc2C(=O)O)ccc1O`, in data set [2], the inhibition at 100 µM was 50%.

The values are drawn from ChEMBL document CHEMBL1153705, “Evaluation and optimization of antifibrotic activity of cinnamoyl anthranilates” (Bioorg Med Chem Lett, 2009).
